Assays:
[1] = target: T1, Cystic fibrosis transmembrane conductance regulator (Homo sapiens, UniProt P13569); assay: Activation of human CFTR expressed in rat FRT cells; assay type: cell-based
[2] = (§1) In vivo activation CFTR expressed in wild-type CD1 mouse assessed as hyperpolarization of ocular surface by measuring potential difference at 1 to 10 uM; assay type: functional; conditions: dose 1-10 µM
[3] = target: T1, Cystic fibrosis transmembrane conductance regulator; assay: Activation of wildtype CFTR in human Calu-3 cells; assay type: cell-based
[4] = target: T1, Cystic fibrosis transmembrane conductance regulator; assay: Activation of CFTR (unknown origin)
[5] = target: T1, Cystic fibrosis transmembrane conductance regulator; assay: Activation of wildtype CFTR (unknown origin) expressed in CHO cells; assay type: cell-based
[6] = target: T1, Cystic fibrosis transmembrane conductance regulator; assay: Binding affinity at human wildtype CFTR assessed as inhibition constant by fluorescence based analysis
[7] = tested on: Cystic fibrosis transmembrane conductance regulator (Homo sapiens), P13569 [G551D]; assay: Activation of CFTR G551D mutant (unknown origin); conditions: filed as opener
[8] = target: T1, Cystic fibrosis transmembrane conductance regulator; assay: Activation of human wildtype CFTR expressed in rat FRT cells by patch clamp analysis; assay type: cell-based
Mus musculus = assay: as §1; assay type: functional; conditions: dose 1-10 µM
[9] = target: T1, Cystic fibrosis transmembrane conductance regulator; assay: Activation of human wildtype CFTR

T1 sequence (P13569 whole entry): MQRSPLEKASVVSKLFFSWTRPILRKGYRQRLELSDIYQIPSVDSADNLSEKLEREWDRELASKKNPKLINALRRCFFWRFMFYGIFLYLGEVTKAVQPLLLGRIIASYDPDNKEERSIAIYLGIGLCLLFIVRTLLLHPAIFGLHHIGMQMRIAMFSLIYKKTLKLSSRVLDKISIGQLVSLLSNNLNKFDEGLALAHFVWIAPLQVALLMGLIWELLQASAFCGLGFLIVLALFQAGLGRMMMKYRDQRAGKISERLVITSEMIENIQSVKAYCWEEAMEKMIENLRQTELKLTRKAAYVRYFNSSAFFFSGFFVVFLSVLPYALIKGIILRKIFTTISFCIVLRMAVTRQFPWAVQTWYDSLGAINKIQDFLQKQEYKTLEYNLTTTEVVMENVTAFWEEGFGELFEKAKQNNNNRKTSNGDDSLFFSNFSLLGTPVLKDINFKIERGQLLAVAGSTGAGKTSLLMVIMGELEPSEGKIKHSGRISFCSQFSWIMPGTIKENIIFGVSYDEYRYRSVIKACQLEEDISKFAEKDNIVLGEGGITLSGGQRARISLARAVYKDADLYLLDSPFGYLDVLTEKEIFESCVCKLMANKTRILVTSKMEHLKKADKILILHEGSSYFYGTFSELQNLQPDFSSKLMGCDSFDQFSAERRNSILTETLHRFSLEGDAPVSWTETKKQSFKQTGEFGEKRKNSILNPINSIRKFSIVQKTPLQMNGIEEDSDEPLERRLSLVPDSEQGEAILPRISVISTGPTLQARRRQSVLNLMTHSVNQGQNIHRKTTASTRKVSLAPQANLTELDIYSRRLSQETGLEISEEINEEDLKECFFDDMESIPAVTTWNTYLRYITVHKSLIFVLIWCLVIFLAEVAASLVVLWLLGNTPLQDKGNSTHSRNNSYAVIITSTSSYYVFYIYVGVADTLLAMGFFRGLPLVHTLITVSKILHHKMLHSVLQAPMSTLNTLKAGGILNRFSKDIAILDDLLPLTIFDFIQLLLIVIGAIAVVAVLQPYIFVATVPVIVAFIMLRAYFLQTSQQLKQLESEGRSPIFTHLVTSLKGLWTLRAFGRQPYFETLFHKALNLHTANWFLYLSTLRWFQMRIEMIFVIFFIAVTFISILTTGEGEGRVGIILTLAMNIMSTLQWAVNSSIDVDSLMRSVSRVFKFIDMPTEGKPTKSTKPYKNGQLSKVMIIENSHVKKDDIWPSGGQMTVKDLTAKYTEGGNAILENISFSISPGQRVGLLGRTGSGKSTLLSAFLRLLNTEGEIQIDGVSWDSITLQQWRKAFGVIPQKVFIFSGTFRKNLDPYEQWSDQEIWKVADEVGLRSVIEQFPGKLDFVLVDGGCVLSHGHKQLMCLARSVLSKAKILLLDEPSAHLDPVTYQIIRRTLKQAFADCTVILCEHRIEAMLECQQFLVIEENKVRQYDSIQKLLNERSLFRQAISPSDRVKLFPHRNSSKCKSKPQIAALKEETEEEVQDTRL
Chain of Cystic fibrosis transmembrane conductance regulator (Homo sapiens), P13569 [G551D] (P13569 whole entry G551D): as the sequence (P13569 whole entry) above, with G551D counted along it

Structure (SMILES) | EC50 [1] [nM] | Activity [2] [mV] | further results
COc1ccccc1CC(=O)Nc1nnc(Cc2ccc(OC)c(OC)c2)s1 | 340 | -9.9 | –
CNc1nc(Nc2ccc([N+](=O)[O-])cc2)nc(OCC(F)(F)C(F)F)n1 | – | -10 | –
CNc1nc(Nc2cccc([N+](=O)[O-])c2)nc(OCC(F)(F)F)n1 | 400 | -7.4 | –
COc1ccc(Cc2nnc(NC(=O)Cc3cccs3)s2)cc1OC | 685 | -2.5 | –
CC(C)Cn1c(=O)c2[nH]cnc2n(C)c1=O | – | – | EC50 [3]: 100000 nM
COc1ccc(Cc2nnc(NC(=O)Cc3c(F)cccc3Cl)s2)cc1OC | 571 | -3.1 | –
CC(C)c1ccc(NC(=O)[C@H](c2ccccc2)N(C)C(=O)Cc2c[nH]c3ccccc23)cc1 | – | – | EC50 [4]: 70 nM
CCCn1cnc2c1N=CN1C2=N[C@](C)(C(=O)O)[C@H](O)[C@@]1(C)O | – | – | EC50 [5]: 2900 nM
Cc1cc(C)cc(/N=C2/NC(=O)/C(=C/c3ccc(O)cc3)S2)c1 | 332 | -8.6 | –
O=C(c1cccs1)N1N=C(c2ccccc2)CC1c1ccccc1[N+](=O)[O-] (stereo unspecified) | 385 | -4.1 | –
O=c1cc(-c2ccc(O)cc2)oc2cc(O)cc(O)c12 [APIGENIN] | – | – | Ki [6]: 4800 nM
CCCCc1c(-c2ccc(O)cc2)[nH]c2nccnc12 | – | – | Activity [7]: 1.5 nM
CCOc1ccccc1CC(=O)Nc1nnc(Cc2ccc(OC)c(OC)c2)s1 | 377 | -3.4 | –
CC(C)Cn1c(=O)n(C)c(=O)c2[nH]cnc21 [ISOBUTYLMETHYLXANTHINE] | – | – | EC50 [3]: 45000 nM
CCN(CC)c1nc(Nc2ccccc2)nc(OC(C(F)(F)F)C(F)(F)F)n1 | – | -8.5 | –
Nc1ccc([N+](=O)[O-])cc1-c1nc2ccccc2n(Cc2ccccc2)c1=O | 138 | -9.1 | EC50 [8]: ~200 nM
O=c1cc(-c2ccncc2)oc2c1cc(-c1ccco1)c1ccccc12 | – | – | Ki [6]: 1700 nM
CC(C)(C)c1cc(C(C)(C)C)c(NC(=O)c2c[nH]c3ccccc3c2=O)cc1O | – | – | Activity (Mus musculus): -1.8 mV
CCCn1cnc2c1N=CN1C2=N[C@](C)(C(=O)O)[C@@H](O)[C@@]1(C)O | – | – | EC50 [5]: 2100 nM
CNc1nc(Nc2ccccc2)nc(OCC(F)(F)C(F)F)n1 | – | – | EC50 [9]: ~30 nM
CC/N=C1\S/C(=C\c2ccc3c(c2)OCO3)C(=O)N1CC | 2000 | -2.5 | –

— ChEMBL document CHEMBL5356990, “Overview of CFTR activators and their recent studies for dry eye disease: a review” (RSC Med Chem, 2023)
